The test system of data set [1] is women with newly diagnosed epithelial ovarian carcinoma. The protocol: The study was conducted as an open label, multicenter, three-arm phase II clinical trial in women with newly diagnosed epithelial ovarian carcinoma, who have undergone debulking surgery.
The planned number of chemotherapy cycles was 6 in all treatment groups (FIG. 1).
Results were calculated either by using as beginning of the trial period the time of first treatment or the time of randomization. Two pre-planned per protocol interim analyses of PFS and OS from the date of randomization were performed first at 6 months and second at 12 months after the last dose of standard of care chemotherapy of the last enrolled patient. […]
A log-rank test was used for comparing the PFS and OS distributions of the two treatment groups: • H01: PFS/OS group A=PFS/OS group C vs H11: PFS/OS group C≠PFS/OS group A, • H02: PFS/OS group B=PFS/OS group C vs H12: PFS/OS group C≠PFS/OS group B.
The hazard ratio (HR) was calculated using Cox proportional hazard regression. The estimate for the HR was based on fitting a proportional hazards regression model: λ(t)=λ0(t)*exp(βz), • wherein λ0(t) is the baseline hazard function for group C, λ(t) is the hazard function for group A/group B, z is a binary covariate (being 1 for group A/group B and 0 for group C), and exp(β) is the HR. Efficacy in the ITT Population

In data set [2] the test system is first-line patients of ovarian carcinoma. The settings on record: cited from earlier work; for OS HR: compared to patients not treated with bevacizumab; for PFS HR: continuous after combination with carboplatin/paclitaxel.
Where [3] appears, read: treatment group C (standard of care chemotherapy alone), shorter reporting time period.
The mark [4] stands for this setting: bevacizumab 7.5 mg/kg IV q3w, 12 months.
Setting [5] is: bevacizumab 15 mg/kg IV q3w, 15 months.

Here are results for two substances from patent US12708644B2, “Dendritic cell vaccination sequential to chemotherapy” (Excoso a.s., priority 2018, dated 2026).

Read-outs that look alike come from different tables or passages of the source. Marks after values point to notes of the source that are not given here.

For the substance carboplatin and paclitaxel, in data set [1] (standard of care arm (group C), per-protocol population, more than 3.5 years after inclusion), the “patients who have died” value is listed as “about 40%”. Moreover, in data set [1] (setting [3]), the SAEs reported is recorded as 14 and the “patients with SAEs” value was found to be 9.

As for bevacizumab, the “OS HR” value in data set [2] (setting [4]) was 0.99; in data set [2] (bevacizumab 7.5 mg/kg IV q3w, 12 months, listed as Bevacizumab) it was 0.99^c; in data set [2] (setting [5]), 0.88; in data set [2] (bevacizumab 15 mg/kg IV q3w, 15 months, listed as Bevacizumab), 0.88^c. Further, the “PFS HR” value in data set [2] (setting [4]) is 0.86^c; in data set [2] (setting [5]), 0.7^c. In addition, the Safety entry in data set [2] (side effects e.g. gastrointestinal perforation and fistulae, wound healing complications, hypertension, thromboembolism or haemorrhage, congestive heart failure, neutropenia and infections) is “an increased risk for”.
